Experimental data published in PubChem BioAssay (NCI).
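96-well plates; 48 h exposure; 5 concentrations. Endpoints by linear interpolation between flanking doses. Not reached: highest tested concentration assigned. At the GI50, growth is halved. TGI is the concentration that stops growth completely.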

Experiments:
Experiment in all cases: NCI-60 cell line screen, 48 h
ACHN renal = tested on: ACHN renal
MALME-3M melanoma = tested on: MALME-3M melanoma
NCI-H226 lung = tested on: NCI-H226 lung
OVCAR-4 ovarian = tested on: OVCAR-4 ovarian
SF-268 CNS = tested on: SF-268 CNS
SK-MEL-28 melanoma = tested on: SK-MEL-28 melanoma
TK-10 renal = tested on: TK-10 renal
SNB-19 CNS = tested on: SNB-19 CNS
UACC-257 melanoma = tested on: UACC-257 melanoma
UO-31 renal = tested on: UO-31 renal

Row | Structure (SMILES) | TGI (ACHN renal) [µM] | TGI (MALME-3M melanoma) [µM] | TGI (NCI-H226 lung) [µM] | TGI (OVCAR-4 ovarian) [µM] | TGI (SF-268 CNS) [µM] | TGI (SK-MEL-28 melanoma) [µM] | TGI (TK-10 renal) [µM] | TGI (SNB-19 CNS) [µM] | TGI (UACC-257 melanoma) [µM] | TGI (UO-31 renal) [µM] | GI50 (ACHN renal) [nM] | GI50 (NCI-H226 lung) [µM] | GI50 (OVCAR-4 ovarian) [nM] | GI50 (SF-268 CNS) [nM] | GI50 (SK-MEL-28 melanoma) [µM] | GI50 (SNB-19 CNS) [nM] | GI50 (UACC-257 melanoma) [µM] | GI50 (UO-31 renal) [nM] | GI50 (MALME-3M melanoma) [nM] | GI50 (TK-10 renal) [nM]
1 | COc1cccc2ccc(C(=O)c3ccccc3)nc12 | > 100 | > 100 | > 100 | > 100 | > 100 | > 100 | > 100 |  |  |  |  |  |  |  |  |  |  |  |  | 
2 | O=C(O)/C=C/C(=O)N1Cc2cc3ccccc3nc2C1 | > 100 | > 100 | > 100 |  | > 100 | > 100 | > 100 | > 100 | > 100 | > 100 |  |  |  |  |  |  |  |  |  | 
3 | C[n+]1c(/C=C/c2c[nH]c3ccccc23)ccc2ccccc21 | 47.8 |  | 29.1 | 37.1 | 24.2 | 27.3 |  | 35.1 | 25.2 | 30.4 | 10100 | 11 | 7070 | 10400 | 13.8 | 11300 | 12.2 | 11300 |  | 
4 | O=C1/C(=N\O)c2ccccc2S1(=O)=O | > 100 | > 100 | > 100 | > 100 | > 100 |  | > 100 | > 100 | > 100 | > 100 |  |  |  |  |  |  |  |  |  | 
5 | Cc1c(O)c2ccccc2oc1=O | > 100 | > 100 | > 100 | > 100 | > 100 | > 100 |  | > 100 | > 100 | > 100 |  |  |  |  |  |  |  |  |  | 
6 | COC1=CC(c2ccc[nH]2)=N/C1=C\c1[nH]c(C)c(CC(=O)OCc2ccccc2)c1CCC(=O)OCc1ccccc1 | 1.02 | 2.62 | 2.3 | 17.6 |  |  | 2.1 | > 100 | 3.1 | 0.577 | 333 | 0.335 | 358 | 464 |  | 1720 | 0.721 | 210 | 886 | 406
7 | COc1cc(/C=C2\C[C@H]3[C@@H]4CC=C5C[C@@H](O)CC[C@]5(C)[C@H]4CC[C@]3(C)[C@H]2O)ccc1OCCN1CCCC1 | 16.9 |  | 22.3 |  | 22.8 |  | 24.3 | 31.3 | 19.8 | 22.4 | 8380 | 9.55 |  | 9720 |  | 11800 | 9.89 | 10300 |  | 11700
8 | CO/C=C/C(=O)c1cc2cnc3c(=N)cc(NC(=O)C(C)C)c([nH]1)c23 | 1.67 |  | 1.26 | 0.746 | 0.918 | 0.509 | 0.258 | 1.08 | 0.862 | 0.323 | 100 | 0.106 | 63.7 | 61.6 | 0.0587 | 148 | 0.0901 | 16.9 |  | 26.6
9 | COC1OC(CO)C(O)C(OC(C)=O)C1NC(=O)N(CCCl)N=O (centres undefined) | > 100 | > 100 | > 100 | > 100 | > 100 | > 100 | > 100 | > 100 | > 100 |  |  |  |  |  |  |  |  |  |  | 
10 | O=[N+]([O-])c1ccc(C2CC(c3ccccc3Cl)=Nc3ccccc3S2)cc1 (centres undefined) | 42.9 | 24.9 | 27.9 | 24.5 | 18.9 | 22.7 | > 79.1 |  | 35.5 | 36.8 |  |  |  |  |  |  |  |  |  | 
11 | Oc1ccc([Te]CCNCC[Te]c2ccc(O)cc2)cc1 | 94.8 | 69.3 | 46.4 |  | > 100 |  | 90.7 | > 100 | > 100 | 31.7 |  |  |  |  |  |  |  |  |  | 
12 | C=C1CC2CCCC12C=O (centres undefined) | > 10 | > 10 |  | > 10 | > 10 | > 10 | > 10 | > 10 | > 10 |  |  |  |  |  |  |  |  |  |  | 
13 | CN1C(=O)CCC2[C@@H]3CC=C4C[C@@H](O)CC[C@]4(C)C3CC[C@@]21C (some centres undefined) | > 100 | > 100 | > 100 | > 100 |  | > 100 | > 100 |  | > 100 | > 100 |  |  |  |  |  |  |  |  |  | 
14 | O=c1cc(-c2ccccc2)oc2ccc(OC/C(=N/O)c3ccccc3)cc12 |  |  | > 50 | > 50 | 13.2 | > 50 | > 50 | 35.2 | > 50 | > 50 |  | 15.9 | 29000 | 2080 | 8.38 | 2340 | 5.12 | 4340 |  | > 50000
15 | C[C@]12CCc3nc(Nc4cccc(O)c4)sc3C1=CC[C@@H]1[C@@H]2CC[C@]2(C)/C(=N\NC(N)=S)CC[C@@H]12 | 6 | 3.51 | 80.7 |  | 4.45 |  | 4.4 | 12.8 | 6.4 | 2.83 | 2150 | 5.34 |  | 1660 |  | 1880 | 2.12 | 1400 | 1600 | 1900
16 | Cc1ccc(S(=O)(=O)c2ccc(NC(=O)SCCC(=O)O)cc2)cc1 | > 100 |  | > 100 | > 100 | > 100 | > 100 | > 100 | > 100 | > 100 | > 100 |  |  |  |  |  |  |  |  |  | 
17 | O=C(C=C1SCCS1)/C=C\c1ccc(Cl)cc1 |  | > 100 | > 100 | > 100 | > 100 | > 100 | > 100 | > 100 | > 100 | > 100 |  |  |  |  |  |  |  |  |  | 
18 | CC[C@@H]1[C@@H](C)O[C@@](O)([C@@H](C)[C@H](O)[C@H](C)[C@H]2OC(=O)/C=C/C=C/[C@H](C)[C@@H]([C@@H](C)[C@@H](O)[C@H](C)[C@@]3(O)C[C@@H](O[C@H]4C[C@@H](O)[C@H](O)C(C)O4)[C@H](CC)[C@@H](C)O3)OC(=O)/C=C/C=C/[C@@H]2C)C[C@H]1O[C@@H]1C[C@@H](O)[C@H](O)C(C)O1 (some centres undefined) | 0.411 | 0.234 | 0.139 | 0.192 | 0.175 | 0.258 | 0.212 | 0.212 |  | 0.583 | 111 | 0.0655 | 74.1 | 69.8 | 0.0885 | 73.1 |  | 134 | 85.7 | 74.6
